For data set [1] the following is noted: cited from earlier work; for elimination through the biliary system: predominantly renal elimination.
For data set [2] the following is noted: cited from earlier work.
Data set [3] can be described thus: 17O NMR water exchange (residence time of water co-ligand). The class given is physicochemical. The note with it: 17O NMR at 11.7T; for τM^310K, mean residence time of the water co-ligand at 310 K: q = 1 assumed. The method, then:
(§1) Relaxivity measurements were performed on a Bruker mq60 Minispec at 1.41T and 37 °C. Longitudinal (T1) relaxation times were measured using an inversion recovery experiment with 10 inversion times of duration ranging between 0.05 × T1 and 5 × T1. Transverse (T2) relaxation times were measured using a CPMG pulse sequence. Relaxivity (r1, r2) was determined from the slope of a plot of 1/T1,2 vs [Gd] for at least 4 concentrations of Gd(III) (data shown in Supplementary Figs. 93–110). The T2 relaxation times of ^17O at 11.7T were estimated from the full-width at half-height of the H2^17O resonance at temperatures ranging from 278 to 368K. Reduced relaxation rates (1/T2r) were calculated by taking the difference of 1/T2 measured in the presence and absence of Gd(III) and dividing by the mole fraction of coordinated water molecules, assuming q = 1. […] However, at the high magnetic field used, and because of the very-fast water exchange rates observed, there was negligible contribution of T1e, and the data were refit to a two-parameter model using the water exchange rate at 310K (τM) and enthalpy of activation for water exchange (ΔH^‡) as adjustable parameters. The Gd-O hyperfine coupling constant, A/ħ, was assumed to be -3.8 × 10^6 rad s^−1 [57], [58]. Samples were prepared in neat H2O adjusted and enriched with a small amount of H2^17O.

The nature of data set [4]: Relaxivity measurements at 1.41T and 37 °C. Format: physicochemical. As to the method: as §1
Data set [5] in a line: Kinetic stability of Gd complexes monitored by RP-HPLC (acid, base, DTPA, DOTA, ZnCl2). Format: physicochemical. The text has this: The kinetic stability of GBCAs, which reflects the dissociation of the Gd ions from its chelate is used to predict the stability in vivo[10]. The proton-assisted dissociation and direct attack of the endogenous ions are regarded as two main pathways that induced the dissociation of the chelates. The inertness of our Gd(III) complexes was maintained up to 7 days after addition of 1000 equivalents of a competitive ligand, DTPA (Supplementary Fig. 7 & 8). […] The harshest condition tried was setting the complexes of [GdL2A]^−, [GdL2B]^− and [GdDOTA]^− in 1N HCl (Fig. 5, Supplementary Figs. 13 - 15).
Fig. […] Error bars for [GdL2A]^- and [GdL2B]^- refer to the standard error of mean (S.E.M.), statistical data fitting analysis (n = 3; s.e.m.)

Data set [6] in a line: Gd complexes biodistribution studies (ICP-MS). Format: in vivo, BALB/c mice. The following applies: 0.025 mmol/kg i.v.; for Gd biodistribution / elimination profile: 5-360 min post injection. The text has this:
Most commercially available Gd(III)-based MRI contrast agents are excreted rapidly and exclusively through the renal pathway. One of the few exceptions is an acyclic compound, Gd-EOB-DTPA, which has a mixed clearance (50% renal, 50% biliary) and is used for imaging of the liver and biliary system. Gd-BOPTA and MS-325 have predominantly renal elimination with <10% elimination through the biliary system. […] We illustrated with our studies that there is a significant variation in the biodistribution profiles despite the small structural differences of the chiral substituents (Supplementary Fig. 20). Gd biodistribution in BALB/c mice was measured by ICP-MS at 5, 15, 30, 60, 180 and 360 min following injection. […] Low levels of Gd(III) are present at 6 h post injection. […] The specific and unusual localisation of [GdL2]^− in the liver makes it a potential hepatobiliary-specific MRI contrast agent.
Gd concentrations were determined using an Agilent 8800-QQQ ICP-MS system. All samples were diluted with 0.1% Triton X-100 in 5% nitric acid. Lutetium internal standard was steadily introduced to the ICP-MS from an external source during the analysis. A linear calibration curve for each metal ranging from 0.1 ppb to 200 ppb was generated daily for the quantification.
Complexes [GdL1]^−, [GdL2]^− and [GdL5]^− were prepared by dissolving in saline solution, while [GdDOTA]^− (Dotarem) was diluted in saline solution. Eight-week-old male BALB/c mice (purchased from BioLASCO, Taiwan) each weighing approximately 25 g were administered with a single dose of 0.025 mmol/kg compound ([GdL1]^−, [GdL2]^−, [GdDOTA]^− and [GdL5]^−; 3 mice per compound per time point) in a 100 μl volume via lateral tail vein injection. The mice were then euthanized, and their blood collected by cardiac puncture at each time point (5, 15, 30, 60, 180 or 360 min post injection). A control group of 4 mice was treated with saline and killed at time point 0. The liver, lung, heart, kidneys, spleen and brain were removed from the animals and weighed. Gd content in tissue and blood samples was quantified via ICP-MS analysis. All experiments were performed in accordance with the NIH Guide for the Care and Use of Laboratory Animals and approved by the Institutional Animal Care and Use Committee of Massachusetts General Hospital or by the Department of Health of the Hong Kong Government and the Animal Subjects Ethics Sub-Committee of Hong Kong Polytechnic University.

Where two headings read alike, the source gives them in different places. A value given as a limit tells only on which side of the number the result lay.

Regarding `O=C([O-])CN(CCN(CC(=O)[O-])CC(=O)[O-])CCN(CC(=O)[O-])C(COCc1ccccc1)C(=O)[O-].[Gd+3]` (stereo not drawn) [Gd-BOPTA], the “elimination through the biliary system” value in data set [1] is below 10%.
For the compound `C[C@H](C(=O)[O-])N1CCN([C@H](C)C(=O)[O-])CCN([C@H](C)C(=O)[O-])CCN([C@H](C)C(=O)[O-])CC1.[Gd+3]` [Gd-DOTMA], in data set [2] (SAP isomer), the “ΔH^‡” value was 12.8 ± 0.693 kcal/mol and the “τM^310K” value is listed as 156 ns. Besides, in data set [2] (TSAP isomer), the “ΔH^‡” value is 9.63 ± 0.526 kcal/mol and the “τM^310K” value is 26 ns.
`CCOc1ccc(C[C@@H](CN(CCN(CC(=O)[O-])CC(=O)[O-])CC(=O)[O-])N(CC(=O)[O-])CC(=O)[O-])cc1.[Gd+3].[Na+].[Na+]` [Gd-EOB-DTPA]: in data set [1] (mixed clearance), the biliary clearance share is reported as 50% and the renal clearance share is reported as 50%.
Turning to `O=C([O-])CN1CCN(CC(=O)[O-])CCN(CC(=O)[O-])[C@@H](Cc2ccc([N+](=O)[O-])cc2)CN(CC(=O)[O-])CC1.[Gd+3]` [Gd-NB-DOTA], in data set [2] (Mix of isomers), the “ΔH^‡” value was 8.48 kcal/mol and the “τM^310K” value is given as 111 ns.
Regarding `C[C@H](C(=O)[O-])N1CCN([C@H](C)C(=O)[O-])CCN([C@H](C)C(=O)[O-])[C@@H](Cc2ccc([N+](=O)[O-])cc2)CN([C@H](C)C(=O)[O-])CC1.[Gd+3]` [Gd-NB-DOTMA(S-RRR)], in data set [2] (S-SSSS = SAP, S-RRR = TSAP), the “ΔH^‡” value was 6.62 kcal/mol and the “τM^310K” value was 9.4 ns.
For the compound `C[C@@H](C(=O)[O-])N1CCN([C@@H](C)C(=O)[O-])CCN([C@@H](C)C(=O)[O-])[C@@H](Cc2ccc([N+](=O)[O-])cc2)CN([C@@H](C)C(=O)[O-])CC1.[Gd+3]` [Gd-NB-DOTMA(S-SSSS)], in data set [2] (S-SSSS = SAP, S-RRR = TSAP), the “ΔH^‡” value is 6.31 kcal/mol and the “τM^310K” value is on record as 77 ns.
In the case of `O=C([O-])CN(CCN(CC(=O)[O-])C[C@H](COP(=O)([O-])OC1CCC(c2ccccc2)(c2ccccc2)CC1)N(CC(=O)[O-])CC(=O)[O-])CC(=O)[O-].[Gd+3].[H+].[H+].[H+]` [MS-325], in data set [1], the blood half-life result is on record as “unusually long”, the serum albumin binding entry was “extensive serum albumin binding” and the “elimination through the biliary system” value was below 10%.
Turning to `CC[C@@H]1CN(CC(=O)[O-])[C@H](CC)CN(CC(=O)[O-])[C@H](CC)CN(CC(=O)[O-])[C@H](CC)CN1CC(=O)[O-].[Gd+3]` [[Gd(R)L2A]^−], the “ΔH^‡, enthalpy change of activation of water exchange” value in data set [3] amounted to 7.89 ± 0.502 kcal/mol. The “τM^310K, mean residence time of the water co-ligand at 310 K” value in data set [3] was determined as 8.1 ± 0.4 ns. Further, the r1 relaxivity in data set [4] (4.5% w/v HSA (1.4T)) stood at 4.5 mM⁻¹ s⁻¹; in data set [4] (Human Plasma (1.4T)), 4.6 mM⁻¹ s⁻¹; in data set [4] (Water (1.4T)), 3.9 mM⁻¹ s⁻¹.
As to `CC[C@@H]1CN(CC(=O)[O-])[C@H](CC)CN(CC(=O)[O-])[C@H](CC)CN(CC(=O)[O-])[C@H](CC)CN1CC(=O)[O-].[Gd+3]` [[Gd(R)L2B]^−], the “ΔH^‡, enthalpy change of activation of water exchange” value in data set [3] was 2.87 ± 0.406 kcal/mol. Moreover, in data set [3], the “τM^310K, mean residence time of the water co-ligand at 310 K” value was determined as 2.9 ± 0.1 ns. The values for the r1 relaxivity in data set [4] (4.5% w/v HSA (1.4T)), in data set [4] (Human Plasma (1.4T)) and in data set [4] (Water (1.4T)) were 4.8 mM⁻¹ s⁻¹, 4.9 mM⁻¹ s⁻¹ and 3.9 mM⁻¹ s⁻¹, respectively.
`O=C([O-])CN1CCN(CC(=O)[O-])CCN(CC(=O)[O-])CCN(CC(=O)[O-])CC1.[Gd+3]` [[GdDOTA]^−, reference compound]: the values for the r1 relaxivity in data set [4] (4.5% w/v HSA (1.4T)), in data set [4] (Human Plasma (1.4T)) and in data set [4] (Water (1.4T)) were 4.1 mM⁻¹ s⁻¹, 4.0 mM⁻¹ s⁻¹ and 3.2 mM⁻¹ s⁻¹, respectively. The “half-life of the complex” value in data set [5] (1N HCl, room temperature) is listed as below 25 h; in data set [5] (100 equivalents of zinc chloride at 50 °C) it was ~ 100 h. Also, the “Gd biodistribution / elimination profile” value in data set [6] is recorded as “rapid elimination from the body via the kidneys”. Also, the “Gd(III) present at 6 h post injection” value in data set [6] (ICP-MS) is reported as “Low levels”. Also, the “ΔH^‡” value was 13.9 ± 0.598 kcal/mol in data set [2] (SAP isomer) and 10 ± 0.741 kcal/mol in data set [2] (TSAP isomer). In addition, the “τM^310K” value in data set [2] (SAP isomer) is on record as 141 ns; in data set [2] (TSAP isomer), 27 ns.
For the compound `CC[C@H]1CN(CC(=O)[O-])[C@@H](CC)CN(CC(=O)[O-])[C@@H](CC)CN(CC(=O)[O-])[C@@H](CC)CN1CC(=O)[O-].[Gd+3]` [[GdL2]^−], the “Gd biodistribution / elimination profile” value in data set [6] is given as “mainly distributed in the liver”. Further, in data set [6] (ICP-MS), the “Gd(III) detected after 60 min (liver retention)” value is “negligible amounts”.
